Data as given in patent US7105679B2, “Heteroatom containing tetracyclic derivatives as selective estrogen receptor modulators” (priority 2001, dated 2006).
One block for each compound: values may come before it.

What was measured:
MCF-7 cells = assay: MCF-7 Cell Proliferation Assay (14C-thymidine, agonist and antagonist mode); format: cell-based; conditions: number in brackets = number of tests, NA = no detected activity at test concentration
Ishikawa cells = assay: Alkaline Phosphatase Assay in Human Endometrial Ishikawa Cells (agonist and antagonist mode); format: cell-based; conditions: number in brackets = number of tests, NA = no detected activity at test concentration; for EC50: agonist mode; for IC50: antagonist mode with 10 nM 17β-estradiol
[1] = target: T1, human estrogen receptor α (Homo sapiens, UniProt P03372); assay: Estrogen Receptor α Flash Plate Assay (binding of radiolabeled estrogen); conditions: flash plate binding, 0.5 nM radiolabeled estrogen; number in brackets = No. of determinations; NA = no detected activity at test concentration; read-out: Estrogen Receptor α in μM (No.)
T1 construct: purchased Panvera
T1 sequence (P03372 1-595): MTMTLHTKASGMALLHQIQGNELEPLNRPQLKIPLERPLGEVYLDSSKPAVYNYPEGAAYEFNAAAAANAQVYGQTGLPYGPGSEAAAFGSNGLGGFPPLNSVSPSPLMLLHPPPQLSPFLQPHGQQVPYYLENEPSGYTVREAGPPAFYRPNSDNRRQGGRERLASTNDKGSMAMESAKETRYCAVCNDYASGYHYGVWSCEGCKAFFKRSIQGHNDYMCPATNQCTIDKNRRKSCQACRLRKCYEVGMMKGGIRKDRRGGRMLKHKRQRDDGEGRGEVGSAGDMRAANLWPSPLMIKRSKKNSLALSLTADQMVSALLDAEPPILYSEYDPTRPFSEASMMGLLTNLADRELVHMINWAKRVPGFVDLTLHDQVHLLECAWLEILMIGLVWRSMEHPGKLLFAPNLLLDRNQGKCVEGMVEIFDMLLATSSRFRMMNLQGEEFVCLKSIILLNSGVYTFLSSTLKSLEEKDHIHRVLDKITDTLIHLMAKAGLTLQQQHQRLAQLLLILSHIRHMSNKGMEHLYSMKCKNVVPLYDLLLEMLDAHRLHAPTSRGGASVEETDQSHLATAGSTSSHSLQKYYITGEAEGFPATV

hER-β = target: T2, hER-β (Homo sapiens, UniProt Q92731); assay: Estrogen Receptor β Fluorescence Polarization Assay (binding of Fluormone ES2); conditions: fluorescence polarization binding, Fluormone ES2; number in brackets = No. of determinations; NA = no detected activity at test concentration; read-out: Estrogen Receptor β in μM (No.)
T2 construct: purchased Panvera
Source text: This assay monitors binding of a fluorescent analog of estrogen (Fluormone ES2, Panvera) to the estrogen receptor. Plates are read in a fluorometer that can be set to polarization mode. A decrease in […] relative to vehicle control is an indication of binding of a compound to the receptor.
It is crucial to avoid introduction of air bubbles into the reaction in each well of the 96 well plate throughout this procedure. (Bubbles on the surface of the reaction disrupt light flow, affecting the polarization reading.) However, it is also crucial to effectively mix the reaction components upon addition to the well.
On ice, a 2× standard mixture of Assay Buffer (Panvera), 10 nM DTT and 40 nM ES2 was prepared. On ice, a 2× reaction mixture of Assay Buffer (Panvera), and 20 nM hER-β (Panvera) and 40 nM ES2 was also prepared.
Dilutions of test compound were prepared in 30% (v/v) dimethyl sulfoxide/50 mM HEPES, pH 7.5. At this point, the dilutions were 40× the final required concentration.
The standard mixture at 50 μL was then added to each well. The reaction mixture at 48 μL was added to all wells. The compound dilution at 2.5 μL was added to the appropriate wells. The reaction mixtures were mixed using a manual pipette, a roll of aluminum foil adhesive cover was placed on the plate and the plate incubated at room temperature for 1 hour.

[2] = Homo sapiens, MCF7, agonist mode
[3] = Homo sapiens, MCF7, antagonist mode with 10 nM 17β-estradiol

T2 sequence (Q92731 whole entry): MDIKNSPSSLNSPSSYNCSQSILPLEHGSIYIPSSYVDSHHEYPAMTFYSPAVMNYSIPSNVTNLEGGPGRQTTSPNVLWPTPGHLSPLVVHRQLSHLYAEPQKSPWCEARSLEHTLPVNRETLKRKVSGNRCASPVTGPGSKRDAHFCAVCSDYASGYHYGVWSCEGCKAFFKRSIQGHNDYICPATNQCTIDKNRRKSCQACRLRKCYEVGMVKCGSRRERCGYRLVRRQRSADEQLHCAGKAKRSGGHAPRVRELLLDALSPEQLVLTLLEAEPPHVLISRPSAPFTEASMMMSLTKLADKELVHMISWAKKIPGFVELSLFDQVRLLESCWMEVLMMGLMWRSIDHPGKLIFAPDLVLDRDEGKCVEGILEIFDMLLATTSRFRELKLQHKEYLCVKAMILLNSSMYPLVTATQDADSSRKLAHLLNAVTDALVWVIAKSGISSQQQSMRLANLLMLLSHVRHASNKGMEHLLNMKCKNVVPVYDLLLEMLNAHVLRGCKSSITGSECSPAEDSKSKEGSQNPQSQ

melting point: 197 to 198 °C
Compound: CC(C)(C)[Si](C)(C)Oc1ccc2c(c1)OCc1c-2c(=O)oc2cc(F)ccc12

melting point: 150 to 151 °C
Compound: CC(C)(C)[Si](C)(C)Oc1ccc2c(c1)OCc1c-2c(=O)oc2cc(O[Si](C)(C)C(C)(C)C)ccc12

EC50 (MCF-7 cells; [2]): > 10000 nM
IC50 (MCF-7 cells; [3]): > 10000 nM
EC50 (Ishikawa cells; Homo sapiens): > 10000 nM
IC50 (Ishikawa cells; Homo sapiens): > 10000 nM
melting point: 200 to 201 °C
Compound: COc1ccc2c(c1)OCc1c-2c(=O)oc2cc(OC)ccc12 [Compound 2, 2,8-DiMethoxy-11H-chromeno[4,3-c]chromen-5-one]

EC50 (MCF-7 cells; [2]): 1200 nM
IC50 (MCF-7 cells; [3]): > 10000 nM
IC50 [1]: 0.505 µM
EC50 (Ishikawa cells; Homo sapiens): 130 nM
IC50 (Ishikawa cells; Homo sapiens): > 10000 nM
IC50 (hER-β): 0.061 µM
melting point: > 350 °C
Compound: O=c1oc2cc(O)ccc2c2c1-c1ccc(O)cc1OC2 [Compound 1, 2,8-Dihydroxy-11H-chromeno[4,3-c]chromen-5-one]

EC50 (MCF-7 cells; agonist mode): > 10000 nM
IC50 (MCF-7 cells; antagonist mode with 10 nM 17β-estradiol): 5600 nM
IC50 [1]: 0.0074 µM
EC50 (Ishikawa cells): > 10000 nM
IC50 (Ishikawa cells): 149 nM
IC50 (hER-β): 0.15 µM
Compound: Oc1ccc2c(c1)O[C@H](c1ccc(OCCN3CCCCC3)cc1)C1=C2COc2cc(O)ccc21 (stereo in doubt) [Compound 14, 5R*-(−)-[4-(2-Piperidin-1-yl-ethoxy)-phenyl]-5,11-dihydro-chromeno[4,3-c]chromene-2,8-diol]

melting point: 259 to 260 °C
Compound: O=c1oc2cc(F)ccc2c2c1-c1ccc(O)cc1OC2 [Compound 37, 8-Fluoro-2-hydroxy-11H-chromeno[4,3-c]chromen-5-one]

melting point: 166 to 167 °C
Compound: CC(C)(C)[Si](C)(C)Oc1ccc2c(c1)OCC1=C2C(O)Oc2cc(F)ccc21 (centres unmarked)

melting point: 188 to 190 °C
Compound: CC(C)(C)[Si](C)(C)Oc1ccc2c(c1)OC(O)C1=C2COc2cc(O[Si](C)(C)C(C)(C)C)ccc21 (centres unmarked)
